Data reported in patent US10660877B2 (BRISTOL-MYERS SQUIBB COMPANY, priority 2016, dated 2020).
pIC50: −log10 of the molar value. Read-outs that look alike come from different tables or passages of the source.

Columns and labels:
[1] = target: human TLR7 (Homo sapiens (Human), UniProt Q9NYK1); assay: TLR7 inhibition reporter assay (HEK-Blue cells, SEAP reporter, gardiquimod stimulation); format: cell-based
[2] = target: human TLR9 (Homo sapiens (Human), UniProt Q9NR96); assay: TLR9 inhibition reporter assay (HEK-Blue cells, SEAP reporter, ODN2006 stimulation);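 further: compounds tested over 0.05 nM to 50 µM, 22 h incubation, inhibition taken as SEAP signal drop from agonist plus DMSO wells toward a known inhibitor control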
[3] = target: human TLR8 (Homo sapiens (Human), UniProt Q9NR97); assay: TLR8 inhibition reporter assay (HEK-Blue cells, SEAP reporter, R848 stimulation);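 further: compounds tested from 0.05 nM to 50 µM, 22 h at 37 °C, SEAP measured with HEK-Blue Detection, inhibition relative to agonist plus DMSO versus a known inhibitor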
[4] = HEK-Blue cells overexpressing human TLR7, gardiquimod 7.5 μM
[5] = read-out: TLR9 IC50, HEK-Blue cells overexpressing human TLR9, ODN2006 5 nM
[6] = read-out: TLR8 IC50, HEK-Blue cells overexpressing human TLR8, R848 15.9 μM

Chain of human TLR8 (Q9NR97 27-1041): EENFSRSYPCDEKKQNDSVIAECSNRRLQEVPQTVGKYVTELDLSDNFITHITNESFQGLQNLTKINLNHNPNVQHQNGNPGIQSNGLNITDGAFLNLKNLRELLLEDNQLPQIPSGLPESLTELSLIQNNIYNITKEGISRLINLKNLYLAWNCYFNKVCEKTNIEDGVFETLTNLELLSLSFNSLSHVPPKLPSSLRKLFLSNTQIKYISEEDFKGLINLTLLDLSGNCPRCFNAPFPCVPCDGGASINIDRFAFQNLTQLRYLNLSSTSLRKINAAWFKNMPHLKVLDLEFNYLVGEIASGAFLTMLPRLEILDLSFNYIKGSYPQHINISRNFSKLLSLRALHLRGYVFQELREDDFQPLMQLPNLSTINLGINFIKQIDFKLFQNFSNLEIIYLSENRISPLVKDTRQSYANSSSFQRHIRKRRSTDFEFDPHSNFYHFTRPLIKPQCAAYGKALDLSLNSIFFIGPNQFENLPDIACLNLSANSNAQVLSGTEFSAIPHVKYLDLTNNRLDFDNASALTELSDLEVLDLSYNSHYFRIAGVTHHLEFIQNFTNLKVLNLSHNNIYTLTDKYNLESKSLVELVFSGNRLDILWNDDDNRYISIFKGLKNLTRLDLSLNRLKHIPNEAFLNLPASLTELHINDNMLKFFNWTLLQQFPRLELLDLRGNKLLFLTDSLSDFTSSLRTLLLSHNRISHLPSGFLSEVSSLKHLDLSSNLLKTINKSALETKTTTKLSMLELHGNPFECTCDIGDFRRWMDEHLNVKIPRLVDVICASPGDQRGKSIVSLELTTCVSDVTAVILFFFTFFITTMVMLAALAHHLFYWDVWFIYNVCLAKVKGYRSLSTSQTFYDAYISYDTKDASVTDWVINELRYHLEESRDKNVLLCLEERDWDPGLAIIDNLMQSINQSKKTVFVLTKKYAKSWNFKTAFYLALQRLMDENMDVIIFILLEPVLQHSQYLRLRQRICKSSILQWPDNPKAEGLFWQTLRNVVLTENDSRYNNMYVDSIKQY
Chain of human TLR9 (Q9NR96 26-1032): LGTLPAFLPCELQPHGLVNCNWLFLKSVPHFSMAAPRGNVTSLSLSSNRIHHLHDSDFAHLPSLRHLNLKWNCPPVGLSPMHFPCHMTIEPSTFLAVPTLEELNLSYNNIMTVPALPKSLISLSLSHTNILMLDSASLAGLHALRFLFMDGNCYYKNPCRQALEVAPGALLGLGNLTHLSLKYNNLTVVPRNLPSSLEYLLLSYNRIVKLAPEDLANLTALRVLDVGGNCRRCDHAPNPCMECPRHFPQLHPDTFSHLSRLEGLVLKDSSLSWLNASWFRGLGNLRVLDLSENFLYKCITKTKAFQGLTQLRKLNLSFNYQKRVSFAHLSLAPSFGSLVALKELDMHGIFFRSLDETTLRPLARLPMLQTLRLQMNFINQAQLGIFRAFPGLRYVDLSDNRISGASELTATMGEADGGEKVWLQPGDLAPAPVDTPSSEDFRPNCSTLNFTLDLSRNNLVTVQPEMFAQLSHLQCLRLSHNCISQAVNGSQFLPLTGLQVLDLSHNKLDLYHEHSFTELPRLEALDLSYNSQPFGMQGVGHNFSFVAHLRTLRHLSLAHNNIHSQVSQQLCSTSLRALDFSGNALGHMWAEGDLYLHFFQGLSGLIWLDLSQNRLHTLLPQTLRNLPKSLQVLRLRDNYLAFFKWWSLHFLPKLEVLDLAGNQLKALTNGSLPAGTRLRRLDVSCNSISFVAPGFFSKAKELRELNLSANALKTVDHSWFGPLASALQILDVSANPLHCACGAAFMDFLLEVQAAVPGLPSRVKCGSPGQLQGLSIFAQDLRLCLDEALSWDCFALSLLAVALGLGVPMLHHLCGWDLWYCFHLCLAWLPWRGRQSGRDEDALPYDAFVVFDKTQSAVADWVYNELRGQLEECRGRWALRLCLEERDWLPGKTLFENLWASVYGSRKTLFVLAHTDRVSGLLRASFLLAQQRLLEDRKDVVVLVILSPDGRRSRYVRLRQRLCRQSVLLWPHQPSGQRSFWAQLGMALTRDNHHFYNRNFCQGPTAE
Chain of human TLR7 (Q9NYK1 27-1049): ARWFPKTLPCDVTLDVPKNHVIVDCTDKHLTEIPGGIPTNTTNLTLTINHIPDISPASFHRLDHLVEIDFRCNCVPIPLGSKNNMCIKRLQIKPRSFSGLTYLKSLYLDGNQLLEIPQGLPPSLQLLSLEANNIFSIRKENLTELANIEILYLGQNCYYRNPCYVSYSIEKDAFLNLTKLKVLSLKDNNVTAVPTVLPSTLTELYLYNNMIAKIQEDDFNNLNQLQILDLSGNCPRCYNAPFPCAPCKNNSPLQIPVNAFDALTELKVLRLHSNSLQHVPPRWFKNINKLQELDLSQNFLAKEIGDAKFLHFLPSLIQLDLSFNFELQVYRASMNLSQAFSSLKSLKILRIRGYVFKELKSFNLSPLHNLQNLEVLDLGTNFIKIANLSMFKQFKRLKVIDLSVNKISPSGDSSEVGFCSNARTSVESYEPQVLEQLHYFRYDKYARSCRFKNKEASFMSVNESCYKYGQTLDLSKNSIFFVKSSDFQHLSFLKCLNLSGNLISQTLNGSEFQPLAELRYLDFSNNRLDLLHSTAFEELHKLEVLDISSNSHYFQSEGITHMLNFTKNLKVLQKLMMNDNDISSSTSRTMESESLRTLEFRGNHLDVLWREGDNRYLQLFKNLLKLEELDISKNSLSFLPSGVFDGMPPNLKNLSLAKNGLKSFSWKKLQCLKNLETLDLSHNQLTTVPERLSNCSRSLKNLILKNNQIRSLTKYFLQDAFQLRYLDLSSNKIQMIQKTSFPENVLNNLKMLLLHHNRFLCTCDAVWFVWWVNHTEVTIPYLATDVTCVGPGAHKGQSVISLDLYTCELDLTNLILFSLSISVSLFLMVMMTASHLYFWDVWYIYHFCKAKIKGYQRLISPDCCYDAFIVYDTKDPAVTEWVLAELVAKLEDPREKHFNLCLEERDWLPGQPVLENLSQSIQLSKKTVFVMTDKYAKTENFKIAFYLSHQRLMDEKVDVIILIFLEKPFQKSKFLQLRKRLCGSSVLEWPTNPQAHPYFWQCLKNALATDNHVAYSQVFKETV

Row | SMILES | pIC50 [1, 4] | pIC50 [2, 5] | pIC50 [3, 6] | pIC50 ([1]; HEK-Blue cells, gardiquimod 7.5 μM) | pIC50 ([2]; read-out: TLR9 IC50, HEK-Blue cells, ODN2006 5 nM) | pIC50 ([3]; read-out: TLR8 IC50, HEK-Blue cells, R848 15.9 μM)
1 | Cc1cc(-c2[nH]c3ccc(C4CCN(C5CCN(C(C)C)CC5F)CC4)cc3c2C(C)C)ccn1 (stereo not drawn) [Example 706, 5-(3′-fluoro-1′-isopropyl-[1,4′-bipiperidin]-4-yl)-3-isopropyl-2-(2-methylpyridin-4-yl)-1H-indole] | 7.64 | 6.47 | 8.30 | – | – | –
2 | CCC(CC)NC(=O)CN1CCC(c2ccc3[nH]c(-c4cc(C)nc(C)c4)c(C(C)C)c3c2)CC1 [Example 220, 2-(4-(2-(2,6-dimethylpyridin-4-yl)-3-isopropyl-1H-indol-5-yl)piperidin-1-yl)-N-(pentan-3-yl)acetamide] | 7.86 | 5.89 | 7.44 | – | – | –
3 | Cc1cc(-c2[nH]c3ccc(C4CCN(C(=O)CN5CC6(COC6)C5)CC4)cc3c2C(C)C)cc(C)n1 [Example 364, 1-(4-(2-(2,6-dimethylpyridin-4-yl)-3-isopropyl-1H-indol-5-yl)piperidin-1-yl)-2-(2-oxa-6-azaspiro[3.3]heptan-6-yl)ethan-1-one] | 8.36 | 6.23 | 7.87 | – | – | –
4 | Cc1cc(-c2[nH]c3ccc(C4CCN(C(=O)CN5CCOCC5=O)CC4)cc3c2C(C)C)cc(C)n1 [Example 161, 4-(2-(4-(2-(2,6-dimethylpyridin-4-yl)-3-isopropyl-1H-indol-5-yl)piperidin-1-yl)-2-oxoethyl)morpholin-3-one] | 8.10 | < 4.30 | 7.31 | – | – | –
5 | Cc1cc(-c2[nH]c3ccc(C4CCN(CCCN(C)C)CC4)cc3c2C(C)C)cc(C)n1 [Example 674, 3-(4-(2-(2,6-dimethylpyridin-4-yl)-3-isopropyl-1H-indol-5-yl)piperidin-1-yl)-N,N-dimethylpropan-1-amine] | 9.10 | 6.81 | 8.55 | – | – | –
6 | Cc1cc(-c2[nH]c3ccc(C4CCN(CC(=O)N(C)C)CC4)cc3c2C(C)C)cc(F)n1 [Example 500, 2-(4-(2-(2-fluoro-6-methylpyridin-4-yl)-3-isopropyl-1H-indol-5-yl)piperidin-1-yl)-N,N-dimethylacetamide] | 8.20 | 5.48 | 7.85 | – | – | –
7 | COCC(=O)N1CCC(c2ccc3[nH]c(-c4cc(C)nc(C)c4)c(C(C)C)c3c2)CC1 [Example 115, 1-(4-(2-(2,6-dimethylpyridin-4-yl)-3-isopropyl-1H-indol-5-yl)piperidin-1-yl)-2-methoxyethan-1-one] | 8.27 | 4.35 | 6.88 | – | – | –
8 | Cc1cc(-c2[nH]c3ccc(C4CCN(CC(=O)O)CC4)cc3c2C(C)C)cc(C)n1 [Example 875, 2-(4-(2-(2,6-dimethylpyridin-4-yl)-3-isopropyl-1H-indol-5-yl)piperidin-1-yl)acetic acid] | – | – | – | 7.51 | 5.00 | 6.60
9 | Cc1cc(-c2[nH]c3ccc(C4CCN(C(=O)C5CC5)CC4)cc3c2C(C)C)ccn1 [Example 606, cyclopropyl(4-(3-isopropyl-2-(2-methylpyridin-4-yl)-1H-indol-5-yl)piperidin-1-yl)methanone] | 7.25 | 4.39 | 6.73 | – | – | –
10 | CCc1cc(-c2[nH]c3ccc(C4CCNCC4)cc3c2C(C)C)cc(OC)n1 [Example 487, 2-(2-ethyl-6-methoxypyridin-4-yl)-3-isopropyl-5-(piperidin-4-yl)-1H-indole] | 7.48 | 5.67 | 7.10 | – | – | –
11 | Cc1cc(-c2[nH]c3ccc(C4CCN(C(=O)Cn5ccc(C(F)(F)F)n5)CC4)cc3c2C(C)C)cc(C)n1 [Example 156, 1-(4-(2-(2,6-dimethylpyridin-4-yl)-3-isopropyl-1H-indol-5-yl)piperidin-1-yl)-2-(3-(trifluoromethyl)-1H-pyrazol-1-yl)ethan-1-one] | 7.52 | 4.73 | 6.73 | – | – | –
12 | Cc1cc(-c2[nH]c3ccc(C4CCN(CCO)CC4)cc3c2C(C)C)c(F)cn1 [Example 647, 2-(4-(2-(5-fluoro-2-methylpyridin-4-yl)-3-isopropyl-1H-indol-5-yl)piperidin-1-yl)ethan-1-ol] | 8.41 | 5.57 | 8.64 | – | – | –
